Assay results from patent publication US20070280915A1, “Combination Therapies Employing A Composition Comprising A Hmg Coa Reductase Inhibitor And A Vitamin B6 Related Compound” (priority 2003, published 2007).
Several values for one entry are separate records, joined by “and”; a condition that tells them apart may be missing. Equal entries are not always repeated. Where two headings read alike, the source gives them in different places.

Experiments:
CYP2B6 = biological target: T1, CYP2B6 (Homo sapiens, UniProt P20813); test: CYP2B6 inhibition assay (substrate EFC)
T1 sequence (P20813 1-491): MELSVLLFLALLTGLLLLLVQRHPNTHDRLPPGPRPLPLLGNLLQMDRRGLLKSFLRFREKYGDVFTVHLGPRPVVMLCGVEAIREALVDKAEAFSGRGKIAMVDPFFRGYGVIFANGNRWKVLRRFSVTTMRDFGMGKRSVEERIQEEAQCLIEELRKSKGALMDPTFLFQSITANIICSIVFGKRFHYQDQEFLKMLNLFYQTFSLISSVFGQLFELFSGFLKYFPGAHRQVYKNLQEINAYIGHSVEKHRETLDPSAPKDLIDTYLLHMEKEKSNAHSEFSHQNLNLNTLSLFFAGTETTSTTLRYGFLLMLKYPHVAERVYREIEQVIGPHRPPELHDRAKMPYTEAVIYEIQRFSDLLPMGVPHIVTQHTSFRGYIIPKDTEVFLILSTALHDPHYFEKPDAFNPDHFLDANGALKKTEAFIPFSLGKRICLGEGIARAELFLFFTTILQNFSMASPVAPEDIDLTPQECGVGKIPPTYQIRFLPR
Source text: (§1) The CYP inhibition assays used microsomes (Supersomes®, Gentest Corp., Woburn, Mass.) prepared from insect cells, each expressing an individual CYP subtype (CYP1A2, CYP2A6, CYP2B6, CYP2C8, CYP2C9, CYP2C19, CYP2D6, CYP2E1 or CYP3A4) expressed from the corresponding human CYP cDNA using a baculovirus expression vector. The microsomes also incorporated supplemental cDNA-expressed human reductase and/or cytochrome b5, as these enzymes stimulate the activity of the CYPs, allowing for a reduction in the amount of enzyme required per reaction (Gentest Corp.). The assays monitored, via fluorescence detection, the formation of a fluorescent metabolite following incubation of the microsomes with a specific CYP substrate. […] Reactions (0.2 mL) were performed in 96-well microtitre plates at 37° C. in the presence of an NADPH regenerating system [NADP+, glucose-6-phosphate (G6P), glucose-6-phosphate dehydrogenase (G6PDH)] and MgCl2. […] All determinations were performed in duplicate. The reagent solutions used for all of the CYP subtype assays, except CYP2C19 and CYP3A4, were prepared by MBDI. For CYP2C19 and CYP3A4, complete reagent kits purchased from Gentest Corp. (CYP2C19/CEC: Cat. No. HTS-4000, Lot No. 1; CYP3A4/BFC: Cat. No. HTS-1000, Lot No. 1) were used to perform the assays.
(§2) Eight inhibitor and test compound concentrations were tested using 3-fold serial dilutions. The microtitre plates containing 0.1 mL/well of the latter mixture were pre-warmed to 37° C. in an incubator. […] The amount of metabolic product formed was quantified by fluorescence detection in a fluorescence plate reader utilizing excitation and emission filters that had been optimized for the detection of each metabolite.
(§3) Data Analysis—The mean of the duplicate fluorescent signals in the presence and absence (vehicle control) of each compound was calculated and corrected for the background noise. Percent inhibition was calculated as the difference in the corrected fluorescent signals in the absence and presence of the compound, divided by the corrected fluorescent signal in the absence of compound, multiplied by 100%.

CYP2A6 = biological target: T2, CYP2A6 (Homo sapiens, UniProt P11509); test: CYP2A6 inhibition assay (substrate coumarin)
T2 sequence (P11509 1-494): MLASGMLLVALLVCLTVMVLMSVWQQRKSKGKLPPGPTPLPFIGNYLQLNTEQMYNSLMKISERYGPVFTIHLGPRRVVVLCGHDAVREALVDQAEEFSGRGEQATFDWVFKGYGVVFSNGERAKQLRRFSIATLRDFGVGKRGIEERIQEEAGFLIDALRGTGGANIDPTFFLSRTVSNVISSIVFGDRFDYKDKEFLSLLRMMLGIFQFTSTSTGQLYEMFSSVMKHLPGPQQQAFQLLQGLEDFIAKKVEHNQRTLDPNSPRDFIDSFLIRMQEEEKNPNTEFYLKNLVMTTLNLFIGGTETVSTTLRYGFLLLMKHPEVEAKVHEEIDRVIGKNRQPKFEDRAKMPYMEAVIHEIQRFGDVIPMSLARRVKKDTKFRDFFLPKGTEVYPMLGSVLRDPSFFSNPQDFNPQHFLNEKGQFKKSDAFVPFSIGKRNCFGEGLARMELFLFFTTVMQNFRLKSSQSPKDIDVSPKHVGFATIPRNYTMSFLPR
Source text: as §1, §2, §3

CYP2E1 = biological target: T3, CYP2E1 (Homo sapiens, UniProt P05181); test: CYP2E1 inhibition assay (substrate MFC); type: in vitro ADME
T3 construct: purchased Gentest Corp; host or cells: insect cells (baculovirus)
T3 sequence (P05181 whole entry): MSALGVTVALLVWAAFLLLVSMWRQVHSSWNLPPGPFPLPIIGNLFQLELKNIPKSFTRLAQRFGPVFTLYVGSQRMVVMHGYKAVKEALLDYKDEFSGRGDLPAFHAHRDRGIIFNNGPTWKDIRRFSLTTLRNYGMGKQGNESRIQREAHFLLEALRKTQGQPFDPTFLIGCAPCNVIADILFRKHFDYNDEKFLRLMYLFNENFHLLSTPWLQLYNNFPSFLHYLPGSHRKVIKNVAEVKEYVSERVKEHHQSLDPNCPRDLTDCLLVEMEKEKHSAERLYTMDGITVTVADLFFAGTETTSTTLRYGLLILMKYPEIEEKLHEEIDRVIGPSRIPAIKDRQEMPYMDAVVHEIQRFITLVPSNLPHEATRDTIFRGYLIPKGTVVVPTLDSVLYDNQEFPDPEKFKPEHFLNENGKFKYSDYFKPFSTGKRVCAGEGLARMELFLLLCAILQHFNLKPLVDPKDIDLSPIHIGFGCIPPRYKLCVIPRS
Experimental: All determinations were performed in duplicate.

[1] = tested on: patients with mild to moderate hypertension, hyperlipidemia and diabetes mellitus; test: 14-week open-label forced dose-escalation study of P5P in hypertensive diabetics (concomitant statin); type: in vivo, human; settings: individual patient; for Chol:HDL ratio V.1 / HDL cholesterol V.1 / LDL cholesterol V.1 / Total cholesterol V.1 / Triglycerides V.1: V1: 1st visit, Week One, Day 1, on statin; for Triglycerides V.12 / Chol:HDL ratio V.12 / HDL cholesterol V.12 / LDL cholesterol V.12 / Total cholesterol V.12: V12: Last Visit, Week 14, Day 98; for Triglycerides V.12: concomitant P5P (250 to 750 mg once daily) and statin; for Chol:HDL ratio V.12 / HDL cholesterol V.12 / LDL cholesterol V.12 / Total cholesterol V.12: concomitant P5P and statin
Source text: Patient Definition-Patients meeting all of the inclusion criteria and none of the exclusion criteria were eligible for enrollment. The primary inclusion criteria were hypertension and diabetes. At screening all patients must present with or have a history of, uncomplicated, stable, mild to moderate hypertension, (supine diastolic blood pressure SUDBP ≧90 and ≦114 mm Hg) regardless of use or non-use of treatment for this disease. […] The hypertensive patients must present with and have a history (>24 months) of diabetes mellitus (type 1 or 2), that is controlled or uncontrolled, at both screening and treatment initiation visits, to be eligible for inclusion in the study. Other than having diabetes and hypertension, patients must be in good health for their age. A history and physical examination must be within age-related normal limits, or if abnormal, considered clinically insignificant in the opinion of the investigator. Laboratory tests (CBC with differential, prothrombin and partial thrombo-plastin times, platelet count, and urinalysis and blood chemistry panel), must be normal, or if abnormal, considered clinically insignificant. Patients must have a normal ECG or, if abnormal, considered clinically insignificant. […] Essentially, all patients complete a fixed four-week placebo lead-in, to qualify for initiation of active treatment. Eligible patients then begin treatment with 250 mg/day of […]. This dose was administered orally on a daily basis for the next two (2) weeks, subject to dose-limiting side-effects, after which patients are force-titrated to 500 mg/day of […]. […] Thereafter, and for the final four (4) weeks of the study all patients were treated with placebo medication. […] Patients who were on anti-lipid medication prior to the initiation of the study continued their anti-lipid regime throughout the study. Primary Efficacy Evaluations • Supine diastolic blood pressure (SUDBP) measured at specified intervals; • Triglyceride, total cholesterol, LDL cholesterol, and HDL levels measured at specified intervals. […] Dosage Regimens-All patients receive treatment medication once daily, in the morning one hour before breakfast. At each dosing, the prescribed number of tablets will be taken orally, with water, to allow for the following dosing levels: The first dose of study medication is administered at clinic under the supervision of clinic personnel. Patients previously on anti-lipid therapy continued their anti-lipid regime unchanged throughout the study.

[2] = read-out: Expected Inhibitor IC50, value expected from assay validation (mean ± S.D., n ≧ 8 experiments)
[3] = read-out: Observed Inhibitor IC50

SMILES	IC50 (CYP2B6; [2]) [µM]	IC50 (CYP2B6; [3]) [µM]	IC50 (CYP2A6; [2]) [µM]	IC50 (CYP2A6; [3]) [µM]	IC50 (CYP2E1; [3]) [µM]	IC50 (CYP2E1; value expected from assay validation (mean ± S.D., n ≧ 8 experiments), read-out: Expected Inhibitor IC50) [µM]	Chol:HDL ratio V.1 [1]	HDL cholesterol V.1 [1]	LDL cholesterol V.1 [1]	Total cholesterol V.1 [1]	Triglycerides V.1 [1]	Triglycerides V.12 [1]	Chol:HDL ratio V.12 [1]	HDL cholesterol V.12 [1]	LDL cholesterol V.12 [1]	Total cholesterol V.12 [1]
N[C@@H]1C[C@H]1c1ccccc1 (racemic) [Tranylcypromine]	8.82 ± 2.43	6.59	0.99 ± 0.209	0.605	–	–	–	–	–	–	–	–	–	–	–	–
CCN(CC)C(=S)S [DDTC, Diethyldithiocarbamic acid]	–	–	–	–	3.56	5.06 ± 1.96	–	–	–	–	–	–	–	–	–	–
CC(C)c1c(C(=O)Nc2ccccc2)c(-c2ccccc2)c(-c2ccc(F)cc2)n1CC[C@@H](O)C[C@@H](O)CC(=O)O [Lipitor, atorvastatin]	–	–	–	–	–	–	5.0 and 2.2	43 mg/dL and 62 mg/dL	123 mg/dL and 55 mg/dL	217 mg/dL and 136 mg/dL	255 mg/dL and 96 mg/dL	179 mg/dL and 106 mg/dL	5.6 and 2.1	48 mg/dL and 75 mg/dL	183 mg/dL and 63 mg/dL	267 mg/dL and 159 mg/dL
CC[C@H](C)C(=O)O[C@H]1C[C@H](O)C=C2C=C[C@H](C)[C@H](CC[C@@H](O)C[C@@H](O)CC(=O)O)[C@H]21 [Pravachol, pravastatin]	–	–	–	–	–	–	9.5	33 mg/dL	–	313 mg/dL	667 mg/dL	365 mg/dL	8.4	29 mg/dL	–	243 mg/dL
CCC(C)(C)C(=O)O[C@H]1C[C@@H](C)C=C2C=C[C@H](C)[C@H](CC[C@@H]3C[C@@H](O)CC(=O)O3)[C@H]21 [Zocor, simvastatin]	–	–	–	–	–	–	3.9 and 6.3	39 mg/dL and 43 mg/dL	80 mg/dL and 185 mg/dL	152 mg/dL and 272 mg/dL	164 mg/dL and 222 mg/dL	212 mg/dL and 187 mg/dL	4.1 and 5.8	35 mg/dL and 40 mg/dL	68 mg/dL and 153 mg/dL	145 mg/dL and 230 mg/dL
